# Experimental data published in patent publication US11591323B2, “Muscarinic agonists as non-steroidal and non-opioid analgesics and methods of use thereof” (Barry University, priority 2019, dated 2023).
# Where “and” joins values, the source holds several entries; their conditions need not be identical. Identical values can stand only once. Like-named read-outs stand apart in the source and are kept apart here.
# Key:
# Set-up in all cases: host or cells: CHO cells, stably transfected
# M4 muscarinic receptor = target: T1, M4 muscarinic receptor (Homo sapiens, UniProt P08173); assay: inhibition of forskolin-stimulated cAMP, M4 CHO cells (M4Gi); type: cell-based; conditions: for Emax: CHO
# T1 sequence (P08173 1-479): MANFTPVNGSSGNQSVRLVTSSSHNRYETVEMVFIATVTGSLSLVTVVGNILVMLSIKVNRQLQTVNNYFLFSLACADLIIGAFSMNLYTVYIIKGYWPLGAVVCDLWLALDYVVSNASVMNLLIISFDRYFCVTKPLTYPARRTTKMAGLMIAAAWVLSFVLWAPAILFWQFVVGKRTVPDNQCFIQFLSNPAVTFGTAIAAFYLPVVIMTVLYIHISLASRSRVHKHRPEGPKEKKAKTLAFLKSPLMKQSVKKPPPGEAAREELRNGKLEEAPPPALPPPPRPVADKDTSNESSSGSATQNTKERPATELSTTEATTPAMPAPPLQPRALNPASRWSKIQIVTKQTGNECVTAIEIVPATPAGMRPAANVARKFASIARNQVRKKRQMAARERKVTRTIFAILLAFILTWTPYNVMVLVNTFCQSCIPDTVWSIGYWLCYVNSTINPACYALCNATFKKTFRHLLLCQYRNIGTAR
# M2 muscarinic receptor = target: T2, M2 muscarinic receptor (Homo sapiens, UniProt P08172); assay: [3H]NMS competition binding, M2 CHO membranes
# T2 sequence (P08172 1-466): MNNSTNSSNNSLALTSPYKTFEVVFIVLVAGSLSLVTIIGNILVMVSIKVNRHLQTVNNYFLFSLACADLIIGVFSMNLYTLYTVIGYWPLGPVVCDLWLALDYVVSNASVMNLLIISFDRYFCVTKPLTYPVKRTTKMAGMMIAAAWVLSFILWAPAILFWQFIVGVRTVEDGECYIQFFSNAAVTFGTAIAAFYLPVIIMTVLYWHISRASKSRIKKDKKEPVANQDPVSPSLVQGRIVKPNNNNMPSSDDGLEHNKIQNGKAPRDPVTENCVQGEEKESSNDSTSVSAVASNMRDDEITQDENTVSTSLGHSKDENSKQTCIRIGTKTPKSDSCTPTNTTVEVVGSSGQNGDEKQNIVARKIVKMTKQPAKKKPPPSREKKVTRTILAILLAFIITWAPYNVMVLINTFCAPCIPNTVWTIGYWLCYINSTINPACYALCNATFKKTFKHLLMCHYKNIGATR
# M5 muscarinic receptor = target: T3, M5 muscarinic receptor (Homo sapiens, UniProt P08912); assay: accumulation of IPX, M5 CHO cells (M5Gq); type: cell-based; conditions: for τ: operational efficacy; for Δlog(τ/KA): to carbachol
# T3 sequence (P08912 1-532): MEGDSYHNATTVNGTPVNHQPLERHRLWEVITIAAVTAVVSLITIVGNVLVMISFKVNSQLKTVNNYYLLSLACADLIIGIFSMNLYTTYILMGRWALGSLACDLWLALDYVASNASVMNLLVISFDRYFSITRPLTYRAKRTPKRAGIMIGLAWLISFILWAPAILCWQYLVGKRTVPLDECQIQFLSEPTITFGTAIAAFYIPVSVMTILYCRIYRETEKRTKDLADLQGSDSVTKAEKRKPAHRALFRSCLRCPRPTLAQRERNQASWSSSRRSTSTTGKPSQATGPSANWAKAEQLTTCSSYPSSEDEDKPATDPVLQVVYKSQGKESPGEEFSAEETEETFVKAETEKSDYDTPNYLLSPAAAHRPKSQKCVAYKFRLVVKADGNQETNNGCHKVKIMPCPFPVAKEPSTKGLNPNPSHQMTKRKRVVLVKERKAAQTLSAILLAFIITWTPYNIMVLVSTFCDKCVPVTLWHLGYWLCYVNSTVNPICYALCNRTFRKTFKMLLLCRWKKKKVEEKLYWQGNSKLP
# [1] = M4 (↓cAMP), preferential response, Table 7, read-out: E′MAX
# [2] = M4 (↓cAMP), preferential response, Table 7, operational efficacy
# [3] = M4 (↓cAMP), preferential response, Table 7, operational model, read-out: pKA (converted)
# [4] = M4 (↓cAMP), preferential response, Table 7, read-out: pEC50 (converted)
# [5] = M4 (↓cAMP), preferential response, relative to carbachol, Tables 2, 3, 7
# [6] = M4 (↓cAMP), preferential response, to carbachol, Tables 2, 3, 7
# [7] = M4Gi (↓cAMP), Table 8, relative to carbachol
# [8] = M4Gi (↓cAMP), Table 8, to carbachol
# [9] = M4Gi (↓cAMP), Table 8, read-out: pEC50 (converted)
# [10] = M4Gi (↓cAMP), Table 8, read-out: pKA (converted)
# [11] = competition with 1 nM [3H]NMS, read-out: Inhibition constants (Ki) as negative logarithms, M2 (converted)
# [12] = M5 (↑IPX), preferential response, Table 7
# [13] = M5 (↑IPX), preferential response, Table 7, read-out: pEC50 (converted)
# [14] = M5 (↑IPX), preferential response, relative to carbachol, Tables 2, 3, 7
# [15] = M5Gq (↑IPX), Table 8, relative to carbachol
# [16] = M5Gq (↑IPX), Table 8, read-out: pEC50 (converted)
# [17] = high-affinity fraction of binding to M2, read-out: high affinity binding
# [18] = M5 (↑IPX), preferential response, Table 7, operational model, read-out: pKA (converted)
# [19] = M5 (↑IPX), preferential response, Tables 2, 3, 7
structure (smiles),measurement,setting,value
"C1=CCN(Cc2cccs2)CC1.Cl [Compound 6A, 1-[(thiophen-2-yl)methyl]-1,2,3,6-tetrahydropyridin-1-ium chloride]",Emax,M4 muscarinic receptor; [1],25 ± 2%
same,τ,M4 muscarinic receptor; [2],0.39 ± 0.04
same,Kd,M4 muscarinic receptor; [3],6.31 µM
same,EC50,M4 muscarinic receptor; [4],4.27 µM
same,RAi,M4 muscarinic receptor; [5],0.0046 ± 0.0004
same,Δlog(τ/KA),M4 muscarinic receptor; [6],2.15 ± 0.16
same,E′MAX,"M4 muscarinic receptor; M4Gi (↓cAMP), Table 8",25 ± 2 % inhibition
same,τ,"M4 muscarinic receptor; M4Gi (↓cAMP), Table 8",0.39 ± 0.04
same,RAi,M4 muscarinic receptor; [7],0.0046 ± 0.0004
same,Δlog(τ/KA),M4 muscarinic receptor; [8],2.15 ± 0.16
same,EC50,M4 muscarinic receptor; [9],8.51 µM
same,Kd,M4 muscarinic receptor; [10],12.6 µM
same,Ki,M2 muscarinic receptor; [11],42.7 µM
same,E′MAX,M5 muscarinic receptor; [12],1.19 ± 0.04 fold over basal
same,EC50,M5 muscarinic receptor; [13],1.58 µM
same,RAi,M5 muscarinic receptor; [14],0.0025 ± 0.0008
same,E′MAX,"M5 muscarinic receptor; M5Gq (↑IPX), Table 8",1.16 ± 0.04 fold over basal
same,RAi,M5 muscarinic receptor; [15],0.0023 ± 0.0007
same,EC50,M5 muscarinic receptor; [16],1.58 µM
"Cc1ccc(CN2CC=CCC2)s1.Cl [Compound 6B, 1-[(5-methylthiophen-2-yl)methyl]-1,2,3,6-tetrahydropyridin-1-ium chloride]",Emax,M4 muscarinic receptor; [1],25 ± 2%
same,τ,M4 muscarinic receptor; [2],0.39 ± 0.04
same,Kd,M4 muscarinic receptor; [3],12.6 µM
same,EC50,M4 muscarinic receptor; [4],9.77 µM
same,RAi,M4 muscarinic receptor; [5],0.0020 ± 0.0002
same,Δlog(τ/KA),M4 muscarinic receptor; [6],2.51 ± 0.20
same,Ki,M2 muscarinic receptor; [11],10.2 µM
same,Ki,M2 muscarinic receptor; [17],~0.03 µM
same,E′MAX,M5 muscarinic receptor; [12],1.7 ± 0.1 fold over basal
same,τ,M5 muscarinic receptor; [12],0.04 ± 0.01
same,Kd,M5 muscarinic receptor; [18],15.8 µM
same,EC50,M5 muscarinic receptor; [13],15.1 µM
same,RAi,M5 muscarinic receptor; [14],0.0009 ± 0.0005
same,Δlog(τ/KA),M5 muscarinic receptor; [19],3.04 ± 0.66
"Brc1ccc(CN2CC=CCC2)s1.Cl [Compound 6C, 1-[(5-bromothiophen-2-yl)methyl]-1,2,3,6-tetrahydropyridin-1-ium chloride]",Emax,M4 muscarinic receptor; [1],13 ± 1%
same,τ,M4 muscarinic receptor; [2],0.38 ± 0.04
same,Kd,M4 muscarinic receptor; [3],2.51 µM
same,EC50,M4 muscarinic receptor; [4],2.14 µM
same,RAi,M4 muscarinic receptor; [5],0.0041 ± 0.005
same,Δlog(τ/KA),M4 muscarinic receptor; [6],2.13 ± 0.12
same,Ki,M2 muscarinic receptor; [11],10 µM
same,E′MAX,M5 muscarinic receptor; [12],1.36 ± 0.08 fold over basal
same,τ,M5 muscarinic receptor; [12],0.02 ± 0.01
same,Kd,M5 muscarinic receptor; [18],7.94 µM
same,EC50,M5 muscarinic receptor; [13],7.59 µM
same,RAi,M5 muscarinic receptor; [14],0.0009 ± 0.0003
same,Δlog(τ/KA),M5 muscarinic receptor; [19],3.03 ± 0.95
"C[N+]1(Cc2cccs2)CC=CCC1.[I-] (stereo not shown) [Compound 7A, 1-methyl-1-[(thiophen-2-yl)methyl]-1,2,3,6-tetrahydropyridin-1-ium iodide]",Emax,M4 muscarinic receptor; [1],39 ± 2%
same,τ,M4 muscarinic receptor; [2],0.78 ± 0.08
same,Kd,M4 muscarinic receptor; [3],3.16 µM
same,EC50,M4 muscarinic receptor; [4],1.78 µM
same,RAi,M4 muscarinic receptor; [5],0.0209 ± 0.0011
same,Δlog(τ/KA),M4 muscarinic receptor; [6],1.58 ± 0.22
same,E′MAX,"M4 muscarinic receptor; M4Gi (↓cAMP), Table 8",39 ± 2 % inhibition
same,τ,"M4 muscarinic receptor; M4Gi (↓cAMP), Table 8",0.78 ± 0.08
same,RAi,M4 muscarinic receptor; [7],0.0209 ± 0.0011
same,Δlog(τ/KA),M4 muscarinic receptor; [8],1.58 ± 0.22
same,EC50,M4 muscarinic receptor; [9],1.78 µM
same,Kd,M4 muscarinic receptor; [10],3.16 µM
same,Ki,M2 muscarinic receptor; [11],7.94 µM
same,E′MAX,M5 muscarinic receptor; [12],1.28 ± 0.05 fold over basal
same,EC50,M5 muscarinic receptor; [13],7.94 µM
same,RAi,M5 muscarinic receptor; [14],0.0007 ± 0.0002 and 0.0007 ± 0.0001
same,E′MAX,"M5 muscarinic receptor; M5Gq (↑IPX), Table 8",1.26 ± 0.05 fold over basal
same,RAi,M5 muscarinic receptor; [15],0.0006 ± 0.0002
same,EC50,M5 muscarinic receptor; [16],7.94 µM
"Cc1ccc(C[N+]2(C)CC=CCC2)s1.[I-] (stereo not shown) [Compound 7B, 1-methyl-1-[(5-methylthiophen-2-yl)methyl]-1,2,3,6-tetrahydropyridin-1-ium iodide]",Emax,M4 muscarinic receptor; [1],30 ± 1%
same,τ,M4 muscarinic receptor; [2],0.51 ± 0.05
same,Kd,M4 muscarinic receptor; [3],3.98 µM
same,EC50,M4 muscarinic receptor; [4],2.88 µM
same,RAi,M4 muscarinic receptor; [5],0.0087 ± 0.0009
same,Δlog(τ/KA),M4 muscarinic receptor; [6],1.90 ± 0.18
same,Ki,M2 muscarinic receptor; [11],2.29 µM
same,Ki,M2 muscarinic receptor; [17],~0.03 µM
same,E′MAX,M5 muscarinic receptor; [12],1.47 ± 0.07 fold over basal
same,τ,M5 muscarinic receptor; [12],0.02 ± 0.01
same,Kd,M5 muscarinic receptor; [18],5.01 µM
same,EC50,M5 muscarinic receptor; [13],4.37 µM
same,RAi,M5 muscarinic receptor; [14],0.0021 ± 0.0009
same,Δlog(τ/KA),M5 muscarinic receptor; [19],2.67 ± 0.41
"C[N+]1(Cc2ccc(Br)s2)CC=CCC1.[I-] (stereo not shown) [Compound 7C, 1-[(5-bromothiophen-2-yl)methyl]-1-methyl-1,2,3,6-tetrahydropyridin-1-ium iodide]",Emax,M4 muscarinic receptor,11 ± 1%
same,τ,M4 muscarinic receptor; [2],0.14 ± 0.01
same,Kd,M4 muscarinic receptor; [3],2.51 µM
same,EC50,M4 muscarinic receptor; [4],2.4 µM
same,RAi,M4 muscarinic receptor; [5],0.0030 ± 0.0003
same,Δlog(τ/KA),M4 muscarinic receptor; [6],2.26 ± 0.16
same,Ki,M2 muscarinic receptor; [11],0.933 µM
same,E′MAX,M5 muscarinic receptor; [12],1.19 ± 0.04 fold over basal
same,EC50,M5 muscarinic receptor; [13],3.16 µM
same,RAi,M5 muscarinic receptor; [14],0.0013 ± 0.0005
"C[N+]1(Cc2ccc(Cl)s2)CC=CCC1.[I-] (stereo not shown) [Compound 7D, 1-[(5-chlorothiophen-2-yl)methyl]-1-methyl-1,2,3,6-tetrahydropyridin-1-ium iodide]",EC50,M4 muscarinic receptor,4.68 µM
same,Kd,M4 muscarinic receptor,6.31 µM
same,Emax,M4 muscarinic receptor,28 ± 1%
same,τ,M4 muscarinic receptor; [2],0.46 ± 0.05
same,RAi,M4 muscarinic receptor; [5],0.0048 ± 0.0005
same,Δlog(τ/KA),M4 muscarinic receptor; [6],2.14 ± 0.19
same,Ki,"M2 muscarinic receptor; Inhibition constants (Ki) as negative logarithms, M2, competition with 1 nM [3H]NMS",0.692 µM
same,Ki,"M2 muscarinic receptor; Inhibition constants Ki, at M2 receptors",0.7 µM
same,Kd,M5 muscarinic receptor,12.6 µM
same,E′MAX,M5 muscarinic receptor; [12],3.5 ± 0.2 fold over basal
same,τ,M5 muscarinic receptor; [12],0.14 ± 0.01
same,RAi,M5 muscarinic receptor; [14],0.0049 ± 0.0006
same,Δlog(τ/KA),M5 muscarinic receptor; [19],2.31 ± 0.50
same,EC50,"M5 muscarinic receptor; pEC50, M5 (↑IPX), preferential response, Table 7",9.77 µM
"C[N+](C)(C)CCOC(N)=O [carbachol, reference compound]",E′MAX,"M4 muscarinic receptor; M4 (↓cAMP), preferential response, Table 7",55 ± 2 % inhibition
same,τ,M4 muscarinic receptor; [2],1.41 ± 0.08
same,Δlog(τ/KA),M4 muscarinic receptor; [6],0
same,E′MAX,"M4 muscarinic receptor; M4Gi (↓cAMP), Table 8",55 ± 2 % inhibition
same,τ,"M4 muscarinic receptor; M4Gi (↓cAMP), Table 8",1.4 ± 0.1
same,Δlog(τ/KA),M4 muscarinic receptor; [8],0
